How the values were obtained:
[1] = refractive index (Na D-line) (dimensionless); details: 303.15 K; 101.33 kPa; Liquid; Standard Abbe refractometry
[2] = 101.33 kPa, Liquid; for electrical conductivity: Alternating current cell with electrodes; for viscosity: Falling or rolling sphere viscometry; for speed of sound: Sing-around technique in a fixed-path interferometer; for mass density: Vibrating tube method
[3] = wn = mass fraction of the nth substance listed; details: 303.15 K, 100 kPa, Liquid; for electrical conductivity: Alternating current cell with electrodes; for viscosity: Falling or rolling sphere viscometry; for speed of sound: Frequency=3 MHz, Sing-around technique in a fixed-path interferometer; for mass density: Vibrating tube method

CCCC[NH2+]CCO.O=C([O-])C(F)(F)F [N-(2-hydroxyethyl)butan-1-aminium 2,2,2-trifluoroacetate]
Details	refractive index
[1]	1.4126

[2]
Details	electrical conductivity [S/m]	mass density [kg/m3]	speed of sound [m/s]	viscosity [mPa·s]
303.15 K	0.0391	1203.34	1282.6	211.7
308.15 K	0.0494	1198.07	1270	171.1
313.15 K	0.0596	1194.18	1257.7	135.3
318.15 K	0.0703	1190.28	1245.7	104.6
323.15 K	0.0811	1186.37	1233.9	81.7
328.15 K	0.0916	1182.48	1222.4	64.7
333.15 K	0.103	1178.6	1211	52.3
338.15 K	0.116	1174.73	1199.8	42.8
343.15 K	0.128	1170.87	1188.7	35.6

CCCC[NH2+]CCO.O=C([O-])C(F)(F)F [N-(2-hydroxyethyl)butan-1-aminium 2,2,2-trifluoroacetate] + O
[3]
Details	electrical conductivity [S/m]	mass density [kg/m3]	speed of sound [m/s]	viscosity [mPa·s]
w2 = 0.002186	0.0391	1203.34	1282.6	211.7
w2 = 0.003652	0.0393	–	–	–
w2 = 0.003864	–	1203.51	1282.9	211.1
w2 = 0.004819	0.0394	–	–	–
w2 = 0.005373	–	1203.68	1283.2	210.4
w2 = 0.006342	0.0396	–	–	–
w2 = 0.006759	–	1203.81	1283.4	209.8
w2 = 0.007483	0.0398	–	–	–
w2 = 0.008675	–	1204	1283.7	209.1

CCCC[NH2+]CCO.O=[N+]([O-])[O-] [N-(2-hydroxyethyl)butan-1-aminium nitrate]
Details	refractive index
[1]	1.4675

[2]
Details	electrical conductivity [S/m]	mass density [kg/m3]	speed of sound [m/s]	viscosity [mPa·s]
303.15 K	0.0583	1114.69	1608.3	272.1
308.15 K	0.0701	1111.58	1595.7	202.9
313.15 K	0.085	1108.47	1583.5	154
318.15 K	0.0982	1105.35	1571.5	119.2
323.15 K	0.115	1102.25	1559.7	93.3
328.15 K	0.136	1099.15	1548.1	74.1
333.15 K	0.16	1096.07	1536.7	59.6
338.15 K	0.182	1093	1525.4	48.8
343.15 K	0.2	1089.95	1514.3	40.6

CCCC[NH2+]CCO.O=[N+]([O-])[O-] [N-(2-hydroxyethyl)butan-1-aminium nitrate] + O
[3]
Details	electrical conductivity [S/m]	mass density [kg/m3]	speed of sound [m/s]	viscosity [mPa·s]
w2 = 0.002318	0.0583	1114.69	1608.3	272.1
w2 = 0.003573	0.0585	–	–	–
w2 = 0.003967	–	1114.88	1608.7	271.5
w2 = 0.004837	0.0587	–	–	–
w2 = 0.005068	–	1115.01	1609	271.1
w2 = 0.006108	0.0589	–	–	–
w2 = 0.006904	–	1115.21	1609.4	270.5
w2 = 0.007452	0.0591	–	–	–
w2 = 0.008717	–	1115.39	1609.8	269.8
